The record followed here is US20080020421A1, “METHODS OF SCREENING AGENTS FOR CYTOTOXIC AND ANTIMICROBIAL ACTIVITY” (priority 2006, published 2008).

The test system of test [1] is HeLa-GFP cells. Put plainly: Fluorescent microscopy cytotoxicity assay (LD50 determination, FIG. 2). Type of test: cell-based, human. The following applies: for approximate LD50 in HeLa-GFP: various concentrations, cell counts under fluorescent microscopy, FIG. 2.
Procedure: The concentration of the test compounds (μM) are shown within the figure. Horizontal bar indicates the 50% toxicity range. H2O2 (+control, 1 mM) was used as a positive control (+; 100% cytolysis) while cells treated with DMSO (1 μl; solvent for all quinones) was used as the negative (−) control.
Fluorescent microscopy cytotoxicity assays. HeLa-GFP cells were plated on 24-well plates and left overnight to adhere. Different dilutions of the quinones were then added to each well (indicated in the legend) using the same concentrations of the positive and negative controls as described in the previous assay. Cell counts were done under fluorescent microscopy to determine cytotoxicity. The status of the fluorescent GFP-nuclei and the typical morphological characteristics of cells undergoing cell death were taken into account when differentiating between dying or viable cells as previously described (Montoya et al., 2004).
The subject of test [2] is HeLa-GFP cells. Put plainly: HeLa-GFP fluorometric cytotoxicity assay. The note with it: for Percent-GFP-fluorescence after incubation with test compounds, HeLa-GFP (2 μg/ml) / Percent-GFP-fluorescence after incubation with test compounds, HeLa-GFP (20 μg/ml): 18 h incubation, relative to untreated (DMSO) cells; for toxicity to HeLa-GFP cells (in words): loss of GFP signal, Table 1 screen.
Procedure: Cell culture. HeLa-GFP cells were cultured in DMEM media supplemented with 10% heat-inactivated newborn calf serum as previously described (Montoya et al., 2004). Stock cultures were prewashed twice with PBS before the treatment of trypsin for cell resuspension and subsequently re-plated at the concentration of 4,000 cells/well.
HeLa-GFP fluorometric cytotoxicity assay. All cell lines were seeded in clear-bottomed 96-well assay plates (3603, Costar, Corning Inc., Corning, N.Y.) in order to minimized background fluorescence. HeLa cells were grown in a total volume of 0.2 ml of medium and incubated overnight for proper cell attachment. The quinone compounds were then added to each well (in triplicate) and then incubated for a period of 18 hr. For the determination of fluorescence, the assay plates were then read using the Fluoroskan Ascent F1 fluorometer (Thermo Electron Corp.) set at the excitation and emission parameters of 485 and 518 nm, respectively. Since the HeLa-GFP cell line is adherent, the fluorometer was set to read from the bottom of the plate for closer proximity to the cells. Before the readings were performed, all supernatant media was removed to avoid any background interference and thus enhancing the sensitivity of the optical readings. For calibration purposes, three untreated control wells were used to determine the maximum level of fluorescence (100%). […] As a cytolysis control (complete loss of fluorescence), three wells containing cells were exposed to 0.2 ml of deionized water. These controls were then used to calculate the percent loss of GFP signal after compound exposure as determined by comparison with control wells containing cells that were not exposed to the chemical agent (see data analysis below).
Data analysis. All compounds, including controls, were screened in triplicate. The average of the three wells that were used for the removal of the background fluorescence (wells containing water for the HeLa-GFP assays and wells containing media alone for bacteria) was subtracted from each individual well. The mean of these triplicate values for each compound was then obtained. These mean values were then divided by the average obtained for maximum fluorescence (cells not treated with compound) and then multiplied by 100 to obtain the percentage values as shown in Table 1.

The test system of a further test is E. coli-GFP. Put plainly: Toxicity assay with GFP-expressing E. coli. The following applies: for Percent-GFP-fluorescence after incubation with test compounds, E. coli-GFP (20 μg/ml): 10 h incubation, relative to untreated bacteria; for toxicity to E. coli (in words): loss of GFP signal, Table 1 screen.
Test [3] deals with M. avium-GFP (strain MAC104). Kind of test: Toxicity assay with GFP-expressing M. avium. The note with it: for Percent-GFP-fluorescence after incubation with test compounds, M. avium-GFP (20 μg/ml): 18 h incubation, relative to untreated bacteria; for toxicity to M. avium (in words): loss of GFP signal, Table 1 screen.
Procedure: (§1) E. coli-GFP cells were grown in LB broth media while the MAC104 M. avium strain was grown in 7H9-ADC media.
(§2) Toxicity assays with GFP-expressing bacteria. E. coli was transformed with a GFP-expression plasmid that also confers tetracycline resistance was kindly provided by Dr. David Schneider (Elrod-Erickson et al., 2000). […] Both bacterial strains were grown and selected based on antibiotic resistance and GFP expression. All toxicity assays were performed using the plates and fluorometric parameters described in the previous section. Bacterial cell suspensions were seeded in a final volume of 100 μl at an optical density of 0.05 and 0.25 at 650 nm, for E. coli-GFP and M. avium-GFP, respectively. After exposure to the test compounds, assay plates were incubated at 37° C. in a humid environment to prevent dehydration in the wells. Unlike the HeLa-GFP assays, reading were performed without removing the supernatants to avoid loss of cells. Several untreated wells containing bacteria and media were used to determine the maximum level of fluorescence. Several wells containing media alone (no bacteria) were included in each assay to remove background fluorescence.
(§3) Data analysis. All compounds, including controls, were screened in triplicate. The average of the three wells that were used for the removal of the background fluorescence (wells containing water for the HeLa-GFP assays and wells containing media alone for bacteria) was subtracted from each individual well. The mean of these triplicate values for each compound was then obtained.

Procedure for E. coli-GFP: as §1, §2, §3

Consider `OO` [Compound H2O2, H2O2], for which, in the test with HeLa-GFP cells [1] (1 mM, HeLa-GFP), the “cytolysis (positive control)” value is recorded as 100%.
As to `CC1=CC(=O)c2c(O)cccc2C1=O` [Compound Q1, plumbagin, reference compound], the “approximate LD50 in HeLa-GFP” value in the test with HeLa-GFP cells [1] was roughly 3.0 µM. In addition, in the test with HeLa-GFP cells [2], the “Percent-GFP-fluorescence after incubation with test compounds, HeLa-GFP (2 μg/ml)” value (from here on “Percent-GFP-fluorescence … (2 μg/ml)”) is 13.0%; the “Percent-GFP-fluorescence after incubation with test compounds, HeLa-GFP (20 μg/ml)” value (shortened to “Percent-GFP-fluorescence … HeLa-GFP (20 μg/ml)”) is given as 9.0%; the “toxicity to HeLa-GFP cells (in words)” value was “most toxic”. The “toxicity to HeLa-GFP cells (in words)” value in the test on HeLa-GFP cells [2] (listed as Plumbagin) is given as “third-most toxic to HeLa cells”. Moreover, in the test with E. coli-GFP, the “Percent-GFP-fluorescence after incubation with test compounds, E. coli-GFP (20 μg/ml)” value was determined as 1.0% and the “toxicity to E. coli (in words)” value is listed as “most toxic”. Also, in the test on E. coli-GFP (listed as Plumbagin), the “toxicity to E. coli (in words)” value is given as “most toxic compound to E. coli”. For the same compound, in test [3], the “Percent-GFP-fluorescence after incubation with test compounds, M. avium-GFP (20 μg/ml)” value came out at 7.0% and the “toxicity to M. avium (in words)” value is recorded as “most toxic”. For the same compound, in test [3] (listed as Plumbagin), the “toxicity to M. avium (in words)” value is “most toxic to M. avium”.
Take `O=C1C=CC(=O)c2c(O)ccc(O)c21` [Compound Q3, naphthazarin, reference compound]: the “approximate LD50 in HeLa-GFP” value in the test on HeLa-GFP cells [1] is roughly 3.0 µM. Also, in the test with HeLa-GFP cells [2], the “Percent-GFP-fluorescence … (2 μg/ml)” value worked out at 0%; the “Percent-GFP-fluorescence … HeLa-GFP (20 μg/ml)” value is 4.0%; the “toxicity to HeLa-GFP cells (in words)” value is “highly toxic”. Also, in the test on E. coli-GFP, the “Percent-GFP-fluorescence after incubation with test compounds, E. coli-GFP (20 μg/ml)” value came to 41.0% and the “toxicity to E. coli (in words)” value is reported as “highly toxic”. Also, in test [3], the “Percent-GFP-fluorescence after incubation with test compounds, M. avium-GFP (20 μg/ml)” value stood at 38.0% and the “toxicity to M. avium (in words)” value is listed as “highly toxic”.
Take `CCCCC12OC1(c1ccccc1)C(=O)c1ccccc1C2=O` (centres unmarked) [Compound Q22]: in the test on HeLa-GFP cells [2], the “Percent-GFP-fluorescence … (2 μg/ml)” value amounted to 75.0% and the “Percent-GFP-fluorescence … HeLa-GFP (20 μg/ml)” value turned out to be 14.0%. Further, the “Percent-GFP-fluorescence after incubation with test compounds, E. coli-GFP (20 μg/ml)” value with E. coli-GFP is recorded as 110.0%. The “Percent-GFP-fluorescence after incubation with test compounds, M. avium-GFP (20 μg/ml)” value in test [3] stood at 91.0%.
On to `CCCCC12OC1C(=O)c1ccccc1C2=O` (centres unmarked) [Compound Q24], for which, in the test with HeLa-GFP cells [2], the “Percent-GFP-fluorescence … (2 μg/ml)” value is given as 5.0% and the “Percent-GFP-fluorescence … HeLa-GFP (20 μg/ml)” value stood at 23.0%. The “Percent-GFP-fluorescence after incubation with test compounds, E. coli-GFP (20 μg/ml)” value in the test on E. coli-GFP was found to be 87.0%. In addition, the “Percent-GFP-fluorescence after incubation with test compounds, M. avium-GFP (20 μg/ml)” value in test [3] was 202.0%.
On the same counts, the results for `CCCC12OC1(CCC)C(=O)c1ccccc1C2=O` (centres unmarked) [Compound Q26] are 26.0%, 27.0%, 110.0% and 97.0%.
Regarding `CCCC12OC1(CC)C(=O)c1ccccc1C2=O` (centres unmarked) [Compound Q27], in the test on HeLa-GFP cells [2], the “Percent-GFP-fluorescence … (2 μg/ml)” value worked out at 21.0% and the “Percent-GFP-fluorescence … HeLa-GFP (20 μg/ml)” value is given as 21.0%. In addition, in the test on E. coli-GFP, the “Percent-GFP-fluorescence after incubation with test compounds, E. coli-GFP (20 μg/ml)” value amounted to 117.0%. In addition, in test [3], the “Percent-GFP-fluorescence after incubation with test compounds, M. avium-GFP (20 μg/ml)” value amounted to 133.0%.
As to `CCOC(=O)C12OC1(CC)C(=O)c1ccccc1C2=O` (centres unmarked) [Compound Q28], in the test on HeLa-GFP cells [2], the “Percent-GFP-fluorescence … (2 μg/ml)” value is reported as 17.0% and the “Percent-GFP-fluorescence … HeLa-GFP (20 μg/ml)” value was 4.0%. In addition, the “Percent-GFP-fluorescence after incubation with test compounds, E. coli-GFP (20 μg/ml)” value in the test on E. coli-GFP is reported as 115.0%. Moreover, the “Percent-GFP-fluorescence after incubation with test compounds, M. avium-GFP (20 μg/ml)” value in test [3] came to 97.0%.
In the case of `COc1ccc(CC(=O)n2nnc(C3=C(CO)C(=O)c4ccccc4C3=O)c2CO)cc1` [Compound Q30], in the test with HeLa-GFP cells [2], the “Percent-GFP-fluorescence … (2 μg/ml)” value came to 84.0% and the “Percent-GFP-fluorescence … HeLa-GFP (20 μg/ml)” value turned out to be 47.0%. In the test with E. coli-GFP, the “Percent-GFP-fluorescence after incubation with test compounds, E. coli-GFP (20 μg/ml)” value is recorded as 105.0%. Also, the “Percent-GFP-fluorescence after incubation with test compounds, M. avium-GFP (20 μg/ml)” value in test [3] is 96.0%.
For `C[Si](C)(C)n1nnc(C2=C(CO)C(=O)c3ccccc3C2=O)c1CO` [Compound Q31] the same measures were 88.0%, 82.0%, 107.0% and 94.0%.
For `COC(=O)c1ccccc1C1=C(CNC(=O)OC(C)(C)C)C(=O)c2ccccc2C1=O` [Compound Q32] the same measures were 88.0%, 57.0%, 99.0% and 80.0%.
For `COC(=O)c1ccccc1C1=C(CN(C(=O)OC(C)(C)C)C(=O)OC(C)(C)C)C(=O)c2ccccc2C1=O` [Compound Q33] the same measures were 88.0%, 62.0%, 102.0% and 74.0%.
For `CCOC(=O)c1ccccc1C1=C(CNC(=O)OC(C)(C)C)C(=O)c2ccccc2C1=O` [Compound Q34], in the test on HeLa-GFP cells [2], the “Percent-GFP-fluorescence … (2 μg/ml)” value came out at 86.0% and the “Percent-GFP-fluorescence … HeLa-GFP (20 μg/ml)” value is 49.0%. Moreover, the “Percent-GFP-fluorescence after incubation with test compounds, E. coli-GFP (20 μg/ml)” value in the test on E. coli-GFP was 87.0%. For the same compound, the “Percent-GFP-fluorescence after incubation with test compounds, M. avium-GFP (20 μg/ml)” value in test [3] was determined as 64.0%.
For `CCOC(=O)c1ccccc1C1=C(CN(C(=O)OC(C)(C)C)C(=O)OC(C)(C)C)C(=O)c2ccccc2C1=O` [Compound Q35] the same measures were 85.0%, 58.0%, 104.0% and 108.0%.
On the same counts, the results for `CCOC(=O)c1cccc(C2=C(CNC(=O)OC(C)(C)C)C(=O)c3ccccc3C2=O)c1` [Compound Q36] are 89.0%, 59.0%, 100.0% and 93.0%.
On the same counts, the results for `CCOC(=O)c1cccc(C2=C(CN(C(=O)OC(C)(C)C)C(=O)OC(C)(C)C)C(=O)c3ccccc3C2=O)c1` [Compound Q37] are 90.0%, 62.0%, 105.0% and 92.0%.
`CCOC(=O)c1ccc(C2=C(CNC(=O)OC(C)(C)C)C(=O)c3ccccc3C2=O)cc1` [Compound Q38]: in the test with HeLa-GFP cells [2], the “Percent-GFP-fluorescence … (2 μg/ml)” value was determined as 81.0% and the “Percent-GFP-fluorescence … HeLa-GFP (20 μg/ml)” value amounted to 61.0%. Moreover, in the test on E. coli-GFP, the “Percent-GFP-fluorescence after incubation with test compounds, E. coli-GFP (20 μg/ml)” value is 103.0%. Besides, the “Percent-GFP-fluorescence after incubation with test compounds, M. avium-GFP (20 μg/ml)” value in test [3] is 119.0%.
For `CCOC(=O)c1ccc(C2=C(CN(C(=O)OC(C)(C)C)C(=O)OC(C)(C)C)C(=O)c3ccccc3C2=O)cc1` [Compound Q39] the same measures were 88.0%, 62.0%, 108.0% and 96.0%.
